For the test, the system named is Plasmodium falciparum. As to the kind of experiment: Antiplasmodial activity against chloroquine-sensitive Plasmodium falciparum 3D7 by [3H]phenylalanine uptake. The class given is functional, organism-based.

A word on the IC50: it is the concentration that gives 50% inhibition.

As for `COc1cc([C@@H]2Oc3c(OC)cc(/C=C/COC(=O)c4ccccc4)cc3[C@H]2COC(=O)c2ccccc2)ccc1O` (racemic) [DEHYDRODICONIFERYL ALCOHOL DIBENZOATE], the IC50 is 12 µM.

For the origin of these results see ChEMBL document CHEMBL1150170, “An antiplasmodial lignan from Euterpe precatoria” (J Nat Prod, 2002).
